Measurements published in publication PMC5218480 (PLoS ONE, 2017).

Test system: MV-4-11 cells
Test: Gene expression microarray analysis (Affymetrix PrimeView) and GSEA
Assay type: cell-based, human
Parameters: RFU PODN (11730768_x_at) / Fold change /veh PODN (11730768_x_at) / RFU LINC00158 (11744669_a_at) / Fold change /veh LINC00158 (11744669_a_at) / RFU DUSP10 (11751237_a_at) / Fold change /veh DUSP10 (11751237_a_at) / RFU ID3 (11757404_x_at) / Fold change /veh ID3 (11757404_x_at) / RFU PLEKHG5 (11737974_s_at) / Fold change /veh PLEKHG5 (11737974_s_at) / RFU LRRC4B (11730491_at) / Fold change /veh LRRC4B (11730491_at) / RFU GIMAP4 (11747438_a_at) / Fold change /veh GIMAP4 (11747438_a_at) / RFU KRT8 (11758183_x_at) / Fold change /veh KRT8 (11758183_x_at) / RFU CNN1 (11734310_a_at) / Fold change /veh CNN1 (11734310_a_at) / RFU VPS37D (11726825_at) / Fold change /veh VPS37D (11726825_at) / RFU C10orf10 (11716522_x_at) / Fold change /veh C10orf10 (11716522_x_at) / RFU KIR2DL2 /// KIR2DL4 /// KIR2DL5A /// KIR2DL5B /// KIR2DS1 /// KIR2DS2 /// KIR2DS3 /// KIR2DS4 /// KIR3DL3 /// KIR3DL3 /// KIR3DS1 (11738374_at) / Fold change /veh KIR2DL2 /// KIR2DL4 /// KIR2DL5A /// KIR2DL5B /// KIR2DS1 /// KIR2DS2 /// KIR2DS3 /// KIR2DS4 /// KIR3DL3 /// KIR3DL3 /// KIR3DS1 (11738374_at) / RFU C1QL1 (11718748_at) / Fold change /veh C1QL1 (11718748_at) / RFU TMPRSS4 (11747572_a_at) / Fold change /veh TMPRSS4 (11747572_a_at) / RFU HAMP (11756126_x_at) / Fold change /veh HAMP (11756126_x_at) / RFU RNFT2 (11725882_a_at) / Fold change /veh RNFT2 (11725882_a_at) / RFU NR4A2 (11747474_a_at) / Fold change /veh NR4A2 (11747474_a_at) / RFU ABCC12 (11746883_a_at) / Fold change /veh ABCC12 (11746883_a_at) / RFU TMEM136 (11760407_x_at) / Fold change /veh TMEM136 (11760407_x_at) / RFU CLDN22 /// WWC2 (11732394_at) / Fold change /veh CLDN22 /// WWC2 (11732394_at) / RFU HLA-DPB1 (11760878_x_at) / Fold change /veh HLA-DPB1 (11760878_x_at) / RFU SPINT1 (11716480_a_at) / Fold change /veh SPINT1 (11716480_a_at) / RFU GAP43 (11754022_s_at) / Fold change /veh GAP43 (11754022_s_at) / RFU A4GNT (11735810_at) / Fold change /veh A4GNT (11735810_at) / RFU PRB3 (11715151_x_at) / Fold change /veh PRB3 (11715151_x_at) / RFU TUBB4B (11761932_at) / Fold change /veh TUBB4B (11761932_at) / RFU CAPN14 (11732068_a_at) / Fold change /veh CAPN14 (11732068_a_at) / RFU TMCC2 (11721928_a_at) / Fold change /veh TMCC2 (11721928_a_at) / RFU IRGQ (11745062_a_at) / Fold change /veh IRGQ (11745062_a_at) / RFU FAM174B (11720279_a_at) / Fold change /veh FAM174B (11720279_a_at) / RFU TMPRSS4 (11748680_a_at) / Fold change /veh TMPRSS4 (11748680_a_at) / RFU FAM212B (11763350_a_at) / Fold change /veh FAM212B (11763350_a_at) / RFU PLEKHG5 (11743358_a_at) / Fold change /veh PLEKHG5 (11743358_a_at) / RFU ZSCAN30 (11745921_a_at) / Fold change /veh ZSCAN30 (11745921_a_at) / RFU CMKLR1 (11741424_a_at) / Fold change /veh CMKLR1 (11741424_a_at) / RFU LOC101060620 /// MAPK8IP1 (11723275_at) / Fold change /veh LOC101060620 /// MAPK8IP1 (11723275_at) / RFU SPTSSB (11747773_x_at) / Fold change /veh SPTSSB (11747773_x_at) / RFU PRSS12 (11739890_at) / Fold change /veh PRSS12 (11739890_at) / RFU BIN1 (11741810_x_at) / Fold change /veh BIN1 (11741810_x_at) / RFU WNT11 (11732464_a_at) / Fold change /veh WNT11 (11732464_a_at) / RFU C10orf10 (11716521_a_at) / Fold change /veh C10orf10 (11716521_a_at) / RFU C5orf56 (11738089_at) / Fold change /veh C5orf56 (11738089_at) / RFU CYB561 (11721691_x_at) / Fold change /veh CYB561 (11721691_x_at) / RFU ANKRD19P (11752326_a_at) / Fold change /veh ANKRD19P (11752326_a_at) / RFU OR2T12 /// OR2T33 /// OR2T8 (11738714_s_at) / Fold change /veh OR2T12 /// OR2T33 /// OR2T8 (11738714_s_at) / RFU VCAN (11748164_a_at) / Fold change /veh VCAN (11748164_a_at) / RFU JSRP1 (11732532_at) / Fold change /veh JSRP1 (11732532_at) / RFU KRTAP10-11 (11738290_x_at) / Fold change /veh KRTAP10-11 (11738290_x_at) / RFU MYO3A (11730013_a_at) / Fold change /veh MYO3A (11730013_a_at) / RFU EBF3 (11725865_a_at) / Fold change /veh EBF3 (11725865_a_at) / RFU CAMK2N1 (11719241_x_at) / Fold change /veh CAMK2N1 (11719241_x_at) / RFU C5orf56 (11738088_a_at) / Fold change /veh C5orf56 (11738088_a_at) / RFU OLFML3 (11715873_a_at) / Fold change /veh OLFML3 (11715873_a_at) / RFU LOC100653217 /// NTM (11731650_a_at) / Fold change /veh LOC100653217 /// NTM (11731650_a_at) / RFU MAPK11 (11762145_a_at) / Fold change /veh MAPK11 (11762145_a_at) / RFU FIZ1 (11724087_x_at) / Fold change /veh FIZ1 (11724087_x_at) / RFU OASL (11726364_x_at) / Fold change /veh OASL (11726364_x_at) / RFU SOX15 (11748057_x_at) / Fold change /veh SOX15 (11748057_x_at) / RFU CD79A (11719716_a_at) / Fold change /veh CD79A (11719716_a_at) / RFU HIST1H1D (11736915_at) / Fold change /veh HIST1H1D (11736915_at) / RFU CASKIN2 (11723855_a_at) / Fold change /veh CASKIN2 (11723855_a_at) / RFU LOC730098 (11760151_x_at) / Fold change /veh LOC730098 (11760151_x_at) / RFU OR4N2 (11742367_at) / Fold change /veh OR4N2 (11742367_at) / RFU PRRT2 (11749266_a_at) / Fold change /veh PRRT2 (11749266_a_at) / RFU SNX32 (11753110_a_at) / Fold change /veh SNX32 (11753110_a_at) / RFU CDHR5 (11726645_a_at) / Fold change /veh CDHR5 (11726645_a_at) / RFU RCAN1 (11760418_a_at) / Fold change /veh RCAN1 (11760418_a_at) / RFU FAM167A (11723789_a_at) / Fold change /veh FAM167A (11723789_a_at) / RFU FAM26E (11764081_at) / Fold change /veh FAM26E (11764081_at) / RFU ISYNA1 (11749810_s_at) / Fold change /veh ISYNA1 (11749810_s_at) / RFU ACY1 (11761880_at) / Fold change /veh ACY1 (11761880_at) / RFU 11764098_at / Fold change /veh 11764098_at / RFU SAMD14 (11745864_x_at) / Fold change /veh SAMD14 (11745864_x_at) / RFU NPB (11741838_a_at) / Fold change /veh NPB (11741838_a_at) / RFU TMPRSS6 (11731388_a_at) / Fold change /veh TMPRSS6 (11731388_a_at) / RFU KRTAP10-2 (11738614_at) / Fold change /veh KRTAP10-2 (11738614_at) / RFU ARHGAP8 /// PRR5-ARHGAP8 (11727945_x_at) / Fold change /veh ARHGAP8 /// PRR5-ARHGAP8 (11727945_x_at) / RFU KRTAP5-7 /// NADSYN1 (11734609_at) / Fold change /veh KRTAP5-7 /// NADSYN1 (11734609_at) / RFU RASL12 (11751679_a_at) / Fold change /veh RASL12 (11751679_a_at) / RFU CDKN2B (11736163_a_at) / Fold change /veh CDKN2B (11736163_a_at) / RFU PRF1 (11729649_at) / Fold change /veh PRF1 (11729649_at) / RFU, ZNF638 /// ZNF638-IT1 / Fold change vs veh, ZNF638 /// ZNF638-IT1 / RFU, PANK3 / Fold change vs veh, PANK3 / RFU, SH3YL1 / Fold change vs veh, SH3YL1 / RFU, ZEB2 / Fold change vs veh, ZEB2 / RFU, NRIP1 / Fold change vs veh, NRIP1 / RFU, PTTG1IP / Fold change vs veh, PTTG1IP / RFU, CAPN2 / Fold change vs veh, CAPN2 / RFU, MED14 / Fold change vs veh, MED14 / RFU, SNORA58 / Fold change vs veh, SNORA58 / RFU, C1orf63 / Fold change vs veh, C1orf63 / RFU, LRRFIP1 / Fold change vs veh, LRRFIP1 / RFU, NDUFAF7 / Fold change vs veh, NDUFAF7 / RFU, SLC12A2 / Fold change vs veh, SLC12A2 / RFU, IBTK / Fold change vs veh, IBTK / RFU, ESF1 / Fold change vs veh, ESF1 / Fold change vs veh, TMEM50B / RFU, TAOK1 / Fold change vs veh, TAOK1 / RFU, ACBD3 / Fold change vs veh, ACBD3 / RFU, TMA16 / Fold change vs veh, TMA16 / RFU, RWDD3 / Fold change vs veh, RWDD3 / RFU, BCAT1 / Fold change vs veh, BCAT1 / RFU, EDEM3 / Fold change vs veh, EDEM3 / RFU, TMEM33 / Fold change vs veh, TMEM33 / RFU, WDR75 / Fold change vs veh, WDR75 / RFU, AHCTF1 / Fold change vs veh, AHCTF1 / RFU, TFRC / Fold change vs veh, TFRC / RFU, ZDHHC17 / Fold change vs veh, ZDHHC17 / RFU, NOM1 / Fold change vs veh, NOM1 / RFU, ARL8B / Fold change vs veh, ARL8B / RFU, ZBTB11 / Fold change vs veh, ZBTB11 / RFU, TAMM41 / Fold change vs veh, TAMM41 / RFU, KIAA1704 /// LOC100996395 / Fold change vs veh, KIAA1704 /// LOC100996395 / RFU, ING1 / Fold change vs veh, ING1 / RFU, TRMT61B / Fold change vs veh, TRMT61B / RFU, FUBP3 / Fold change vs veh, FUBP3 / RFU, TP53 / Fold change vs veh, TP53 / RFU, TNKS2 / Fold change vs veh, TNKS2 / RFU, ZFP14 / Fold change vs veh, ZFP14 / RFU, ACTR2 / Fold change vs veh, ACTR2 / RFU, PPP3R1 / Fold change vs veh, PPP3R1 / RFU, PIK3R1 / Fold change vs veh, PIK3R1 / RFU, HNRNPA1 / Fold change vs veh, HNRNPA1 / RFU, RNF170 / Fold change vs veh, RNF170 / RFU, ZNF28 / Fold change vs veh, ZNF28 / RFU, RNGTT / Fold change vs veh, RNGTT / RFU, OGT / Fold change vs veh, OGT / RFU, BRD1 / Fold change vs veh, BRD1 / RFU, MARS / Fold change vs veh, MARS / RFU, ZNF655 / Fold change vs veh, ZNF655 / RFU, FAHD1 / Fold change vs veh, FAHD1 / RFU, BDP1 / Fold change vs veh, BDP1 / RFU, LRRCC1 / Fold change vs veh, LRRCC1 / RFU, ARID1A / Fold change vs veh, ARID1A / RFU, ZNF146 / Fold change vs veh, ZNF146 / RFU, ZNF330 / Fold change vs veh, ZNF330 / RFU, GPN3 / Fold change vs veh, GPN3 / RFU, C9orf123 / Fold change vs veh, C9orf123 / RFU, N4BP2L2 / Fold change vs veh, N4BP2L2 / RFU, ARFIP1 / Fold change vs veh, ARFIP1 / RFU, FAM179B / Fold change vs veh, FAM179B / RFU, BCL10 / Fold change vs veh, BCL10 / RFU, UHRF1BP1L / Fold change vs veh, UHRF1BP1L / RFU, BET1 / Fold change vs veh, BET1 / RFU, CNOT2 / Fold change vs veh, CNOT2 / RFU, ZNF268 / Fold change vs veh, ZNF268 / Fold change vs veh, ZNF507 / RFU, DGCR2 / Fold change vs veh, DGCR2 / RFU, WDSUB1 / Fold change vs veh, WDSUB1 / Fold change vs veh, HSP90B1 /// MIR3652 / RFU, ADSS / Fold change vs veh, ADSS / RFU, GK / Fold change vs veh, GK / RFU, ZNF148 / Fold change vs veh, ZNF148 / RFU, TAF9 / Fold change vs veh, TAF9 / RFU, SLC1A5 / Fold change vs veh, SLC1A5 / RFU, SLMO2 / Fold change vs veh, SLMO2 / RFU, ABCC4 / Fold change vs veh, ABCC4 / RFU, LOC101060439 /// RAP1B / Fold change vs veh, LOC101060439 /// RAP1B / RFU, RFX7 / Fold change vs veh, RFX7 / RFU, GTPBP10 / Fold change vs veh, GTPBP10 / RFU, CNEP1R1 / Fold change vs veh, CNEP1R1 / RFU, BIVM-ERCC5 /// ERCC5 / Fold change vs veh, BIVM-ERCC5 /// ERCC5 / RFU, ILF3 / Fold change vs veh, ILF3 / RFU 11762660_at / Fold change /veh 11762660_at / RFU VCAN (11757783_s_at) / Fold change /veh VCAN (11757783_s_at) / RFU DDX43 (11728927_at) / Fold change /veh DDX43 (11728927_at) / RFU KRT8 (11758188_x_at) / Fold change /veh KRT8 (11758188_x_at) / RFU NKD1 (11759106_at) / Fold change /veh NKD1 (11759106_at) / RFU SRD5A1 (11742802_a_at) / Fold change /veh SRD5A1 (11742802_a_at) / RFU TPSAB1 /// TPSB2 (11721975_s_at) / Fold change /veh TPSAB1 /// TPSB2 (11721975_s_at) / RFU GSTM3 (11746129_a_at) / Fold change /veh GSTM3 (11746129_a_at) / RFU IL23R (11737362_x_at) / Fold change /veh IL23R (11737362_x_at) / RFU TMEM51 (11727254_a_at) / Fold change /veh TMEM51 (11727254_a_at) / RFU PIWIL2 (11732686_x_at) / Fold change /veh PIWIL2 (11732686_x_at) / RFU ORM1 (11744905_x_at) / Fold change /veh ORM1 (11744905_x_at) / RFU CCDC152 (11743942_at) / Fold change /veh CCDC152 (11743942_at) / RFU ECM1 (11717891_a_at) / Fold change /veh ECM1 (11717891_a_at) / RFU IL23R (11748794_a_at) / Fold change /veh IL23R (11748794_a_at) / RFU TNFAIP8L3 (11732012_x_at) / Fold change /veh TNFAIP8L3 (11732012_x_at) / RFU MBOAT4 (11741988_at) / Fold change /veh MBOAT4 (11741988_at) / RFU 11764193_at / Fold change /veh 11764193_at / RFU TMEM53 (11763286_at) / Fold change /veh TMEM53 (11763286_at) / RFU MAGEB2 (11727129_at) / Fold change /veh MAGEB2 (11727129_at) / RFU TMEM200A (11744735_a_at) / Fold change /veh TMEM200A (11744735_a_at) / RFU CCDC152 (11751479_a_at) / Fold change /veh CCDC152 (11751479_a_at) / RFU FAM211A (11726209_a_at) / Fold change /veh FAM211A (11726209_a_at) / RFU RGS16 (11746705_a_at) / Fold change /veh RGS16 (11746705_a_at) / RFU VCAN (11755009_s_at) / Fold change /veh VCAN (11755009_s_at) / RFU RHOB (11743442_s_at) / Fold change /veh RHOB (11743442_s_at) / RFU RGS16 (11720943_a_at) / Fold change /veh RGS16 (11720943_a_at) / RFU RGS16 (11720944_at) / Fold change /veh RGS16 (11720944_at) / RFU, VPS4B / Fold change vs veh, VPS4B / RFU, CREB1 / Fold change vs veh, CREB1 / RFU, DNAJC13 / Fold change vs veh, DNAJC13 / RFU, GNAQ / Fold change vs veh, GNAQ / RFU, CDK5R1 / Fold change vs veh, CDK5R1 / RFU, ZRANB3 / Fold change vs veh, ZRANB3 / RFU, CUL4A / Fold change vs veh, CUL4A / RFU, CCNY / Fold change vs veh, CCNY / RFU, UFL1 / Fold change vs veh, UFL1 / RFU, COG3 / Fold change vs veh, COG3 / RFU, DIAPH2 / Fold change vs veh, DIAPH2 / RFU, SKA2 / Fold change vs veh, SKA2 / RFU, AFF3 / Fold change vs veh, AFF3 / RFU, LMF1 / Fold change vs veh, LMF1 / RFU, IPO11 / Fold change vs veh, IPO11 / RFU, DFFB / Fold change vs veh, DFFB / RFU, FOXP1 / Fold change vs veh, FOXP1 / RFU, CARD8 / Fold change vs veh, CARD8 / RFU, STRN3 / Fold change vs veh, STRN3 / RFU, ADK / Fold change vs veh, ADK / RFU, RASSF2 / Fold change vs veh, RASSF2 / RFU, WIPF1 / Fold change vs veh, WIPF1 / RFU, LARP1B / Fold change vs veh, LARP1B / RFU, RASA1 / Fold change vs veh, RASA1 / RFU, RB1 / Fold change vs veh, RB1 / RFU, PPFIA1 / Fold change vs veh, PPFIA1 / RFU, MAT2A / Fold change vs veh, MAT2A / RFU, CCT5 / Fold change vs veh, CCT5 / RFU, WDR92 / Fold change vs veh, WDR92 / RFU, CUX1 / Fold change vs veh, CUX1 / RFU, TTC7A / Fold change vs veh, TTC7A / RFU, TMEM135 / Fold change vs veh, TMEM135 / RFU, DEPTOR / Fold change vs veh, DEPTOR / RFU, CPM / Fold change vs veh, CPM / RFU, DNAJB6 / Fold change vs veh, DNAJB6 / RFU, CACNA2D3 / Fold change vs veh, CACNA2D3 / RFU, DTX4 / Fold change vs veh, DTX4 / RFU, TFCP2 / Fold change vs veh, TFCP2 / RFU, GMCL1 /// GMCL1P1 / Fold change vs veh, GMCL1 /// GMCL1P1 / RFU, AEBP2 / Fold change vs veh, AEBP2 / RFU, SNHG1 /// SNORD22 /// SNORD25 /// SNORD26 /// SNORD27 /// SNORD28 /// SNORD29 /// SNORD31 / Fold change vs veh, SNHG1 /// SNORD22 /// SNORD25 /// SNORD26 /// SNORD27 /// SNORD28 /// SNORD29 /// SNORD31 / Fold change (Aza/veh), C12orf56 (ProbeSet 11735607_a_at) / Fold change (ACY-1035/veh), C12orf56 (ProbeSet 11735607_a_at) / Fold change (Aza/veh), FGFR1OP (ProbeSet 11751329_s_at) / Fold change (ACY-1035/veh), FGFR1OP (ProbeSet 11751329_s_at) / Fold change (Aza/veh), VPS36 (ProbeSet 11739960_a_at) / Fold change (ACY-1035/veh), VPS36 (ProbeSet 11739960_a_at) / RFU SYPL1 (11715823_x_at) / Fold change /veh SYPL1 (11715823_x_at) / RFU IGFBP7 (11715501_s_at) / Fold change /veh IGFBP7 (11715501_s_at) / RFU REEP3 (11722064_at) / Fold change /veh REEP3 (11722064_at) / RFU IGLL1 (11728026_x_at) / Fold change /veh IGLL1 (11728026_x_at): dose or concentration left out as unconfirmed
Details: ProbeSet 11732165_x_at; LIST D

## Nc1ccc(-c2cccs2)cc1NC(=O)c1ccc2c(c1)cc(C1CC1)n2CCN1CCOCC1 [ACY-1035]
  RFU, LMF1: 59.92 RFU
